Test results: publication PMC3506555, “[^11C]phenytoin revisited: synthesis by [^11C]CO carbonylation and first evaluation as a P-gp tracer in rats” (EJNMMI Research, 2012)
“Also recorded” adds a separate entry of the source. Like-named read-outs stand apart in the source and are kept apart here.

Assays:
[1] = Arterial plasma radioactivity concentration during PET scans; assay type: in vivo, Sprague–Dawley rats
Protocol: For animals that underwent three scans, the amount of blood withdrawn was reduced by replacing the two samples at 15 and 30 min with a single 20-min sample. […] Standardized uptake values (SUVs) as a function of time were derived by normalizing measured radioactivity concentrations against injected dose and body weight.

[2] = system: multi-resistant protein (MRP) efflux proteins; experiment: PET Logan graphical analysis of brain VT after probenecid; assay type: in vivo, Sprague–Dawley rats; details: for Kp: Sprague-Dawley, rat, iv, with probenecid 150 mg/kg i.v., after probenecid 150 mg·kg^−1 i.v., n = 2, metabolite-corrected
From the text: (§1) Following cannulation of the femoral vein, animals were positioned in pairs in a double LSO/LYSO layer high-resolution research tomograph (CTI/Siemens, Knoxville, TN, USA). First, for attenuation and scatter correction purposes, a transmission scan was acquired using a 740-MBq two-dimensional fan-collimated ^137Cs (662 keV) moving point source. Next, a dynamic emission scan was acquired immediately following administration of 17.1 ± 2.1 MBq (mean ± SD) ^11C]phenytoin to each rat. Two animals had one single ^11C]phenytoin scan; two animals had two consecutive scans, and two had three consecutive scans. Finally, all animals underwent an ^18F]FDG scan before being euthanized. Tariquidar, 15 mg·kg^−1, was used to completely block P-gp, while probenecid, 150 mg·kg^−1, was used to inhibit multi-resistant protein (MRP) efflux proteins. Tariquidar and probenecid were administered i.v. 20 min prior to the scan start as a 10-min infusion. All animals, except one, were scanned without any treatment prior to the first ^11C]phenytoin scan. Of the animals that had two scans, one underwent two post-tariquidar scans (animal 4, Table 1). […] Animals that underwent three consecutive scans had one baseline, one post probenecid and one post-tariquidar scan. During each scan, emission data were acquired for 60 min in list mode and rebinned into the following frame sequence: 7 × 10, 1 × 20, 3 × 30, 2 × 60, 2 × 150, 2 × 300 and 4 × 600 s. Following corrections for decay, dead time, attenuation, random and scatter, scans were reconstructed using a 3D ordinary Poisson ordered subsets expectation maximization algorithm. […] PET image data were analyzed using the freely available software package Amide 0.9 [31]. A magnetic resonance (MR)-based rat brain atlas was used to define five regions of interest (ROIs): the hippocampus, occipital cortex, parietal cortex, caudate putamen and cerebellum. The MR atlas including all ROIs was aligned visually with the summed ^18F]FDG image for each rat. ROIs were then projected onto all frames of all ^11C]phenytoin scans, resulting in ^11C]phenytoin time-activity curves for each scan and rat.
(§2) During each [^11C]phenytoin scan, arterial blood samples of 0.1 mL were taken at 20 and 40 s and at 1, 2, 5, 15, 30 and 60 min after [^11C]phenytoin injection. For animals that underwent three scans, the amount of blood withdrawn was reduced by replacing the two samples at 15 and 30 min with a single 20-min sample. Plasma was obtained by centrifugation at 4,000 rpm for 5 min at 4°C, and activity in both plasma and whole blood was measured in an automated 1282 Compugamma CS Universal Gamma Counter (LKB Wallac, Turku, Finland), cross-calibrated against the PET scanner. Standardized uptake values (SUVs) as a function of time were derived by normalizing measured radioactivity concentrations against injected dose and body weight.
(§3) To obtain a model independent estimate of the brain-to-plasma partition coefficient, often referred to as volume of distribution, Logan graphical analysis was used. Before Logan analysis, both brain and plasma concentrations were corrected for labeled metabolites. As metabolite fractions were not measured at each plasma or mid-frame time point, linear regression was used to estimate the fraction of intact ^11C]phenytoin at each time point.

P-gp = experiment: PET Logan graphical analysis of brain VT, baseline and after tariquidar P-gp block; assay type: in vivo, Sprague–Dawley rats; details: for Kp: Sprague-Dawley; for Kp / Increase in cerebral distribution volume (VT) after tariquidar compared with baseline: rat; for P-gp substrate character: conclusion from tariquidar predosing studies in rats; for Increase in cerebral distribution volume (VT) after tariquidar compared with baseline: tariquidar 15 mg·kg^−1 predosing
From the text: as §1, §2, §3

[3] = design: method as in PMID 98619; details: dosage of 14 mg/kg, rhesus monkeys; cited from earlier work

Initial plasma concentrations after tariquidar treatment versus baseline ([1]; initial part of scan): somewhat lower than at baseline | Plasma concentrations after tariquidar treatment versus baseline ([1]; towards the end of the scans): similar | Kp ([2]; caudate putamen (relative to plasma), read-out: VT (Logan), caudate putamen): 0.57 ± 0.01 | Kp ([2]; cerebellum (relative to plasma), read-out: VT (Logan), cerebellum): 0.61 ± 0.01 | Kp ([2]; hippocampus (relative to plasma), read-out: VT (Logan), hippocampus): 0.59 | Kp ([2]; occipital cortex (relative to plasma), read-out: VT (Logan), occipital cortex): 0.59 | Kp ([2]; parietal cortex (relative to plasma), read-out: VT (Logan), parietal cortex): 0.57 ± 0.03 | Change in VT after probenecid (interaction with MRP) ([2]; probenecid 150 mg·kg^−1, n = 2, animals in poor condition): no indication of an increase in VT | Kp (P-gp; caudate putamen (relative to plasma), intravenous, baseline, n = 5, metabolite-corrected plasma input and brain data, read-out: VT (Logan), caudate putamen): 0.98 ± 0.08 | Kp (P-gp; caudate putamen (relative to plasma), iv, with tariquidar 15 mg/kg i.v., after tariquidar 15 mg·kg^−1 i.v., n = 5, metabolite-corrected, read-out: VT (Logan), caudate putamen): 1.48 ± 0.12 | Kp (P-gp; cerebellum (relative to plasma), intravenous, baseline, n = 5, metabolite-corrected plasma input and brain data, read-out: VT (Logan), cerebellum): 1.02 ± 0.08 | Kp (P-gp; cerebellum (relative to plasma), iv, with tariquidar 15 mg/kg i.v., after tariquidar 15 mg·kg^−1 i.v., n = 5, metabolite-corrected, read-out: VT (Logan), cerebellum): 1.48 ± 0.09 | Kp (P-gp; hippocampus (relative to plasma), intravenous, baseline, n = 5, metabolite-corrected plasma input and brain data, read-out: VT (Logan), hippocampus): 0.96 ± 0.09 | Kp (P-gp; hippocampus (relative to plasma), iv, with tariquidar 15 mg/kg i.v., after tariquidar 15 mg·kg^−1 i.v., n = 5, metabolite-corrected, read-out: VT (Logan), hippocampus): 1.43 ± 0.07 | Kp (P-gp; occipital cortex (relative to plasma), intravenous, baseline, n = 5, metabolite-corrected plasma input and brain data, read-out: VT (Logan), occipital cortex): 0.91 ± 0.06 | Kp (P-gp; occipital cortex (relative to plasma), iv, with tariquidar 15 mg/kg i.v., after tariquidar 15 mg·kg^−1 i.v., n = 5, metabolite-corrected, read-out: VT (Logan), occipital cortex): 1.3 ± 0.11 | Kp (P-gp; parietal cortex (relative to plasma), intravenous, baseline, n = 5, metabolite-corrected plasma input and brain data, read-out: VT (Logan), parietal cortex): 0.91 ± 0.08 | Kp (P-gp; parietal cortex (relative to plasma), iv, with tariquidar 15 mg/kg i.v., after tariquidar 15 mg·kg^−1 i.v., n = 5, metabolite-corrected, read-out: VT (Logan), parietal cortex): 1.35 ± 0.11 | Increase in cerebral distribution volume (VT) after tariquidar compared with baseline (P-gp): 45% | Increase in cerebral distribution volume (VT) after tariquidar compared with baseline (P-gp; listed as 11C]phenytoin): about 45%
Compound: O=C1N[11C](=O)NC1(c1ccccc1)c1ccccc1 [[^11C]phenytoin]
P-gp substrate character (P-gp): rather weak P-gp substrate; also recorded: moderate P-gp substrate | P-gp substrate character (P-gp; listed as 11C]phenytoin): rather moderate affinity for P-gp | Brain uptake [3]: high brain uptake
